Measurements: patent US20250262215A1, “USE OF CYCLIN E1 STATUS AS A PREDICTIVE BIOMARKER FOR TREATING CANCER WITH WEE1 INHIBITORS” (Zeno Management, Inc., priority 2022, published 2025)

Key:
[1] = tested on: HGSOC cells; experiment: Growth rate inhibition (GR) by CellTiter-Glo and GR calculator; format: cell-based; conditions: for effect on growth rate (GR): relative to untreated control
From the text: To confirm whether Cyclin E1 expression levels were responsible for increased sensitivity to Azenosertib, OV90, Kuramochi and COV362 cells (low endogenous expression levels of Cyclin E1) were transduced with a lentiviral vector carrying the CCNE1 gene or with an empty vector control. Stable OV90, Kuramochi and COV362 cell lines were established by puromycin selection. Cyclin E1 overexpression in the stable OV90 cell line compared to empty vector control cells was confirmed by Western blotting (FIG. 1C). […] Sensitization of HGSOC cell lines by overexpression of Cyclin E1 to Azenosertib was assessed by plotting the growth-rate (GR) inhibition in FIG. 1D. It was observed that Cyclin E1 overexpression sensitized HGSOC cell lines to Azenosertib by further decreasing growth rate and cell viability compared to control empty vector cell lines (FIG. 1D). GR50 and IC50 values of Azenosertib were determined by CellTiter-Glo (CTG) assay and the GR calculator.
HGSOC cells were assessed for growth rate inhibition (GR) in the presence of Azenosertib (relative to an untreated control). GR value is independent of cell division rate and was determined as described in Hafner et al. (Curr. Protoc. Chem. Biol. 9, 96-116 (2017)). HGSOC cells with high Cyclin E1 protein expression were amongst the most sensitive to Azenosertib. […] (FIG. 2). […] In Cyclin E1-low ovarian cancer cell lines, overexpression of Cyclin E1 by lentivirus increased sensitivity to Azenosertib.

[2] = tested on: A2780 non-CCNE1-amplified (CN = 2) (Cyclin E1-low); experiment: Azenosertib and paclitaxel combination study, A2780 tumors; format: in vivo, mice; conditions: Azenosertib 60 mg/kg QD and/or paclitaxel 10 mg/kg, schedules of Table 2
From the text: (§1) To evaluate the effects of Azenosertib in combination with paclitaxel, mice were inoculated with A 2780 (non-CCNE1-amplified, CN=2) (FIGS. 10A and 10B) or OVCAR3 (CCNE1 amplified, CN=14) (FIG. 11A and FIG. 11B) cells. Animals were randomized and treated as summarized in Table 2 once the mean tumor volume reached a specified size.

[3] = tested on: HCC1806 human triple negative breast cancer cells (CCNE1-amplified, CN=7); experiment: HCC1806 xenograft, tumor growth; format: in vivo, BALB/c nude mice; conditions: 80 mg/kg Azenosertib daily; after 28 days
Protocol: 1×10^6 HCC1806 human triple negative breast cancer cells (CCNE1-amplified, CN=7) were inoculated into the right flank of ten 6-8-week-old female BALB/c nude mice. Animals were randomized and treatment started when the mean tumor volume reached 155 mm^3. Animals were treated with vehicle (20% HP-β-CD) or 80 mg/kg Azenosertib daily and tumor volumes and body weight were measured twice weekly.

[4] = tested on: SKOV3, OVCAR3 and HCC1806 tumors; experiment: Tolerability in tumor-bearing mice dosed orally every day (Example 3); format: in vivo, NOD/SCID mice or BALB/c nude mice
Protocol: NOD/SCID mice (SKOV3-Cyclin E1-low and OVCAR3-Cyclin E1-high) or BALB/c nude mice (HCC1806) bearing corresponding tumors were dosed orally every day for the time as shown in FIGS. 5A and 8A. Treatment was well-tolerated and the change in tumor volume was plotted against time of administration. Target engagement of Azenosertib (decreased pCDK1) and γH2AX were examined by IHC in tumors after 12 hrs of Azenosertib treatment in SKOV3-Cyclin E1-low and OVCAR3-Cyclin E1-high cells. Y-axis represents the sum of H-score evaluated by 3 independent pathologists (FIGS. 4B and 4C). Replication stress markers pCHK1 and γH2AX were determined by Western Blot in OVCAR3 tumor samples with or without Azenosertib treatment for 12 hrs (FIG. 4D).

[5] = tested on: CCNE1-amplified platinum-resistant ovarian cancer; experiment: Azenosertib in one heavily pre-treated subject (Example 10); format: in vivo, human; conditions: at least 400 mg once a day, 5 days on, two off days, for 11 months
Protocol: The subject was selected to have CCNE1-amplified status (confirmed by Foundation assay) and was administered Azenosertib in accordance with an intermittent dosing schedule of at least 400 mg Azenosertib once a day for five consecutive days, followed by two off days for 11 months. The subject is a person who received 10 prior lines of therapy: (1) Avelumab (SD); (2) Doxorubicin Liposomal (PD); (3) Topotecan/bevacizumab (PD); (4) Cyclophosphamide/bevacizumab (unk); (5) XMT1536 (NaPi2b ADC) (PR); (6) APG115 (MDM2 inh)/Pembrolizumab (SD); (7) ABBV-155 ([…] ADC) (PD); (8) NC 318 (Siglec-15 mA B) (SD); (9) SM 08502 (CLK inhibitor) (PD); (10) NBMBMX (HDAC8 inh) (SD).

[6] = tested on: OVCAR8 (non=CCNE1-amplified) CDX; experiment: OVCAR8 CDX model, tumor growth inhibition; format: in vivo, mice; conditions: 80 mg/kg Azenosertib daily for 39 days
[7] = tested on: OVCAR3 CCNE1-amplified (CN = 14) (Cyclin E1-high); experiment: Azenosertib and paclitaxel combination study, OVCAR3 tumors; format: in vivo, mice; conditions: Azenosertib 60 mg/kg QD × 28 and/or paclitaxel 5 mg/kg 4 days on, 3 days off × 4 cycles
From the text: as §1

[8] = tested on: OVCAR-3 cells (CCNE1-amplified, CN=14); experiment: OVCAR-3 xenograft, tumor growth inhibition; format: in vivo, NOD/SCID mice; conditions: 80 mg/kg Azenosertib daily; after 28 days
Protocol: 6-8 weeks old female NOD/SCID mice were inoculated with OVCAR-3 cells (CCNE1-amplified, CN=14) into the right flank. Animals were randomized and treated with […] (20% HP-β-CD) or 80 mg/kg Azenosertib daily once the mean tumor volume reached 111 mm^3. Tumor volumes and body weight were measured twice weekly. […] Reduction in tumor growth was also observed in animals treated with 40 mg/kg Azenosertib daily, 60 mg/kg Azenosertib daily, 80 mg/kg Azenosertib daily. (FIGS. 8C and 8D).

[9] = tested on: SKOV3 cells (non-CCNE1-amplified, wild-type CCNE1 CN=2); experiment: SKOV3 cell line-derived xenograft (CDX), tumor growth inhibition; format: in vivo, mice; conditions: 80 mg/kg Azenosertib daily
Protocol: Mice were inoculated with SKOV3 cells (non-CCNE1-amplified, wild-type CCNE1 CN=2) on the right flank with the single cell suspension of 95% viable tumor cells (1×10^7) in 100 μL McCoy's 5a and Matrigel mixture (1:1 ratio) without serum for the tumor development. Animals were randomized and treated with vehicle (20% HP-β-CD) or 80 mg/kg Azenosertib daily for 21 days when the mean tumor volume reached 215 mm^3. Tumor growth inhibition (TGI) was calculated using the following equation TGI=(1−(Td−T0)/(Cd−C0))×100%. Td and Cd are the mean tumor volumes of the treated and control animals, and T0 and C0 are the mean tumor volumes of the treated and control animals at the start of the experiment. […] (FIGS. 6A and 6B).

[10] = tested on: CCNE1-amplified platinum-resistant ovarian cancer; design: key: CR: complete response; PR: partial response; SD: stable disease; PD: progressive disease; NE: not evaluable; NA: not available; conditions: one subject, before Azenosertib; cited from earlier work

C=CCn1c(=O)c2cnc(Nc3ccc(N4CCN(C)CC4)cc3)nc2n1-c1ccc2c(n1)[C@@](O)(CC)CC2 [Azenosertib]
effect on growth rate (GR) ([1]; COV362, JHOMI, OAW28, OVCAR3, CAOV3, and OVCAR4 cells): cytotoxic effect
effect on growth rate (GR) ([1]; ES2 and TYK-nu cells): cytotoxic effect
effect on growth rate (GR) ([1]; OV90 and Kuramochi cells): inhibitory effect
GRmax ([1]; ovarian cancer cell lines overexpressing Cyclin E1 protein (Cyclin E1-high)): < −0.5
Tumor Growth Inhibition [2]: 34%
reduced tumor growth vs vehicle [3]: 63.5%
tolerability of treatment [4]: well-tolerated
durable cPR [5]: −71%
average tumor growth inhibition TGI(80 mpk, Day 28) [6]: 52.8%
Tumor Growth Inhibition [7]: 68%
reduced tumor growth TGI(80 mpk, Day 28) [8]: 88%
average tumor growth inhibition TGI(80 mpk, Day 28) [9]: 51.5%

CC(=O)O[C@H]1C(=O)[C@@]2(C)[C@H]([C@H](OC(=O)c3ccccc3)[C@]3(O)C[C@H](OC(=O)[C@H](O)[C@@H](NC(=O)c4ccccc4)c4ccccc4)C(C)=C1C3(C)C)[C@]1(OC(C)=O)CO[C@@H]1C[C@@H]2O [Paclitaxel, paclitaxel, reference compound]
Tumor Growth Inhibition [2]: 46%
Tumor Growth Inhibition [7]: 74%

CN1CCN(c2cc(C(=O)Nc3cc4cc(-c5cnn(C)c5)ccc4cn3)ccn2)CC1 [SM 08502, reference compound]
response to prior line of therapy [10]: PD

Avelumab: prior line of therapy of the subject [reference compound]
response to prior line of therapy [10]: SD

B1: ABBV-155 (conjugate, chains of the INN, looked up)
VH: EVQLQESGPGLVKPSETLSLTCAVTGYSITSGYSWHWIRQFPGNGLEWMGYIHSSGSTNYNPSLKSRISISRDTSKNQFFLKLSSVTAADTAVYYCAGYDDYFEYWGQGTTVTVSS
VL: DIQMTQSPSSLSASVGDRVTITCKASQNVGFNVAWYQQKPGKSPKALIYSASYRYSGVPSRFSGSGSGTDFTLTISSLQPEDFAEYFCQQYNWYPFTFGQGTKLEIK
modifications: clezutoclax payload
response to prior line of therapy [10]: PD

B2: XMT1536 (conjugate, chains of the INN, looked up)
VH: QVQLVQSGAEVVKPGASVKMSCKASGYTFTGYNIHWVKQAPGQGLEWIGAIYPGNGDTSYKQKFRGRATLTADTSTSTVYMELSSLRSEDSAVYYCARGETARATFAYWGQGTLVTVSS
VL: DIQMTQSPSSLSASVGDRVTITCSASQDIGNFLNWYQQKPGKTVKVLIYYTSSLYSGVPSRFSGSGSGTDYTLTISSLQPEDFATYYCQQYSKLPLTFGQGTKLELK
modifications: rilsodotin (auristatin) payload
response to prior line of therapy [10]: PR
